Where “and” joins values, the source holds several entries; their conditions need not be identical. Equal entries are not always repeated.
Tested on: 454973-116-R2-J3-PDC complex spheroid viability
Assay: Anticancer human tumor 454973-116-R2-J3-PDC patient-derived pancreatic carcinoma cell line growth inhibition [POLQ]
Details: for viability, T/C: stronger effect = lower value
Experimental: Multicellular complex tumor spheroid response to Polymerase (POL) inhibitors (novobiocin, ART-558, RP6685) in combination with a variety of drugs and investigational agents in selected tumor cell lines
The POL inhibitors (novobiocin, ART-558, and RP6685) were evaluated both individually and in combination with standard of care and investigational anticancer small molecules within a complex spheroid model of solid tumors. . Complex spheroids include a stromal component modeled by human endothelial cells (HUVEC) and fibroblasts modeled by human mesenchymal stem cells (MSCs). The concentration ranges selected for each drug and investigational agent were based upon clinically achievable concentrations if the clinical Cmax of the agent was known.
Compounds. The drugs and investigational agents: novobiocin (NSC847541), ART-558 (NSC835418), RP-6685 (NSC848927), peposertib (NSC802822), ceralasertib (NSC780249), elimusertib (NSC800525), camonsertib (NSC841442), AZD-1390 (NSC803789), olaparib (NSC753686), talazoparib (NSC767125), rucaparib (NSC756644), sotorasib (NSC818433), MRTX-1133 (NSC836407), SN-38 (NSC673596), topotecan (NSC609699), epotoside (NSC141540), doxorubicin (NSC123127), gemcitabine (NSC613327), 5-fluorouracil (NSC19893), paclitaxel (NSC125973), vemurafenib (NSC761431), MSA-2 (NSC828583), SN-011 (NSC837082), adavosertib (NSC754352), prexasertib (NSC758257), carboplatin (NSC241240) and oxaliplatin (NSC266046), were obtained from the National Cancer Institute (NCI) Developmental Therapeutics Program Chemical Repository (21). The FDA-approved anticancer drug set is available from the Developmental Therapeutics Program at https://dtp.cancer.gov/organization/dscb/obtaining/. […] The stock solutions were prepared in dimethyl sulfoxide (DMSO, Sigma-Aldrich, St. Louis, MO, cat. D2650), except for the platinum compounds which were prepared in saline (Quality Biological, Gaithersburg, MD, cat. 114-055-101), at 800-fold the tested concentration and stored at -70 degrees C prior to their use. All drugs and investigational agents were tested over a range starting from a high concentration at or near the clinical Cmax and decreasing in half-log increments. If the clinical Cmax for an agent had not been determined, the highest concentration tested was 10 microM, except for SN-38, which was tested at a high concentration of 1 microM.
Cell Culture. All cells were maintained in an incubator at 37 degrees C and 5% CO2 with 95% humidity. The PDC lines were cultured according to standard operating procedures established by the NCI PDMR (https://pdmr.cancer.gov). Table 3 of the manuscript, lists the cell lines along with the number of the three cell types plated to form the mct-spheroids and media for tumor cell growth. After thawing, all PDC lines, except 997537-175-T-J1-PDC and 415267-285-R-J2-PDC, were cultured in Matrigel-coated flasks prepared with a working solution of 1X Ham's F-12 nutrient mix, without supplementation (Thermo Fisher Scientific, cat. 11765054), 100 U/mL penicillin-streptomycin (Thermo Fisher Scientific, cat. 15140122), and 2.5% Matrigel (Corning Inc., Corning, NY, cat. 354248) for the first three passages. The two PDC lines 997537-175-T-J1-PDC and 415267-285-R-J2-PDC were cultured on uncoated flasks. The 857933-349-R-J2-PDC line was cultured in 6C/Colon 1B media containing advanced DMEM/F-12 (Thermo Fisher Scientific, cat. 12634028), 10 mM HEPES (Thermo Fisher Scientific, cat. 15630080), 1X GlutaMAX supplement (Thermo Fisher Scientific, cat. 35050061), 0.1 mg/mL primocin (InvivoGen, San Diego, CA, cat. ant-pm-2), 10% defined fetal bovine serum, heat inactivated (HyClone Laboratories Inc., Logan, UT, cat. SH30070.03HI), 50% L-WRN conditioned media (ATCC, cat. CRL-3276), 1.25 mM N-Acetyl-L-cysteine (Sigma-Aldrich, cat. A9165), 10 mM nicotinamide (Sigma-Aldrich, cat. N0636), 1X B-27 supplement (Thermo Fisher Scientific, cat. 17504044), 1X N-2 supplement (Thermo Fisher Scientific, cat. […]
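Note: spheroids exposed to drugs for seven days before measurement.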
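Throughout, for viability, T/C: percent viability relative to DMSO vehicle control wells taken as 100%.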

With `CC1COCCN1c1cc(-c2ccnn2C)c2ccnc(-c3ccn[nH]3)c2n1` (centres undefined) the viability, T/C (compound 0.0316 µM) was 91.5% and 96.9% and 97.4%, the viability, T/C (compound 0.1 µM) was 75.7% and 73.8% and 55.7% and the viability, T/C (compound 0.316 µM) was 42.8% and 37.2% and 20.8%. The viability, T/C (compound 1 µM) was 20.7% and 22.5% and 12.6%, the viability, T/C (compound 3.16 µM) was 21.3% and 24.4% and 12.3% and the viability, T/C (compound 10 µM) was 25% and 30% and 17.2%. The IC50 (curve of compound) was 238 nM and 208 nM and 121 nM.
Work on `COc1cccc(OCCCN)c1-c1cc(Nc2cnc(C#N)cn2)n[nH]1` + COC1C(OC(N)=O)C(O)C(Oc2ccc3c(O)c(NC(=O)c4ccc(O)c(CC=C(C)C)c4)c(=O)oc3c2C)OC1(C)C yielded an IC50 (curve of first compound, second compound 0.0316 µM) of 16.9 nM, an IC50 (curve of first compound, second compound 0.1 µM) of 16.5 nM and an IC50 (curve of first compound, second compound 0.316 µM) of 15.2 nM. The IC50 (curve of first compound, second compound 1 µM) was 15.5 nM, the IC50 (curve of first compound, second compound 3.16 µM) was 15.8 nM and the IC50 (curve of first compound, second compound 10 µM) was 15.1 nM. The viability, T/C (second compound 0.0316 µM, first compound 0.00316 µM) was 103%, the viability, T/C (second compound 0.0316 µM, first compound 0.01 µM) was 78% and the viability, T/C (second compound 0.0316 µM, first compound 0.0316 µM) was 16.5%. It also gave a viability, T/C (second compound 0.0316 µM, first compound 0.1 µM) of 5.78%, a viability, T/C (second compound 0.0316 µM, first compound 0.316 µM) of 6.6% and a viability, T/C (second compound 0.0316 µM, first compound 1 µM) of 5.48%. It also gave a viability, T/C (second compound 0.1 µM, first compound 0.00316 µM) of 103%, a viability, T/C (second compound 0.1 µM, first compound 0.01 µM) of 78.8% and a viability, T/C (second compound 0.1 µM, first compound 0.0316 µM) of 12.9%. The viability, T/C (second compound 0.1 µM, first compound 0.1 µM) was 5.6%, the viability, T/C (second compound 0.1 µM, first compound 0.316 µM) was 5.16% and the viability, T/C (second compound 0.1 µM, first compound 1 µM) was 6.37%. The viability, T/C (second compound 0.316 µM, first compound 0.00316 µM) was 95.6%, the viability, T/C (second compound 0.316 µM, first compound 0.01 µM) was 70.8% and the viability, T/C (second compound 0.316 µM, first compound 0.0316 µM) was 13.3%. It also gave a viability, T/C (second compound 0.316 µM, first compound 0.1 µM) of 5.72%, a viability, T/C (second compound 0.316 µM, first compound 0.316 µM) of 3.83% and a viability, T/C (second compound 0.316 µM, first compound 1 µM) of 4.13%. It also gave a viability, T/C (second compound 1 µM, first compound 0.00316 µM) of 97%, a viability, T/C (second compound 1 µM, first compound 0.01 µM) of 73.2% and a viability, T/C (second compound 1 µM, first compound 0.0316 µM) of 12.2%. For the same compound, the viability, T/C (second compound 1 µM, first compound 0.1 µM) was 6.82%, the viability, T/C (second compound 1 µM, first compound 0.316 µM) was 5.97% and the viability, T/C (second compound 1 µM, first compound 1 µM) was 5.82%. It also gave a viability, T/C (second compound 3.16 µM, first compound 0.00316 µM) of 107%, a viability, T/C (second compound 3.16 µM, first compound 0.01 µM) of 75.5% and a viability, T/C (second compound 3.16 µM, first compound 0.0316 µM) of 11%. It also gave a viability, T/C (second compound 3.16 µM, first compound 0.1 µM) of 7.17%, a viability, T/C (second compound 3.16 µM, first compound 0.316 µM) of 6.78% and a viability, T/C (second compound 3.16 µM, first compound 1 µM) of 5.38%. It also gave a viability, T/C (second compound 10 µM, first compound 0.00316 µM) of 104%, a viability, T/C (second compound 10 µM, first compound 0.01 µM) of 68% and a viability, T/C (second compound 10 µM, first compound 0.0316 µM) of 17.8%. It also gave a viability, T/C (second compound 10 µM, first compound 0.1 µM) of 6.01%, a viability, T/C (second compound 10 µM, first compound 0.316 µM) of 7.28% and a viability, T/C (second compound 10 µM, first compound 1 µM) of 7.27%.

Reference: PubChem BioAssay AID1963846 (Molecular Pharmacology Branch, DTP, NCI, 2024)
